Results reported in PMC11438102, “Modulation of cannabinoid receptor 2 alters neuroinflammation and reduces formation of alpha-synuclein aggregates in a rat model of nigral synucleinopathy” (Journal of Neuroinflammation, 2024).

Experiment: Weekly body weights of AAV2/5-human WT Asyn rats
Format: in vivo, rat
Conditions: low and high cohorts, 6 mg/kg i.p. daily, over 8 weeks, vs vehicle
Description: Sprague Dawley male rats (16–18 weeks of age, 400–525 g) were purchased from Charles River Laboratories and acclimated to Emory University animal facilities. Rats were pair housed in standard plexiglass cages under normal 12-hr light cycles and handled in accordance with protocols approved by the IACUC of Emory University in Atlanta, GA. Rats were administered unilateral injections of AAV2/5-human wild-type (WT) Asyn at titers of 2.9–4.3 × 10^11 vector genomes (vg)/mL (termed “low cohort”), which was previously shown to not induce nigral neurotoxicity. Thereby, generating a model with overexpression of human WT Asyn and Asyn-mediated neuroinflammation. One week after surgery, animals were randomly selected to receive daily systemic injections of either SMM-189 (intraperitoneal (i.p.), 6 mg/kg, n = 12) or vehicle (i.p., n = 12) and followed for 8 weeks (Figs. 1; n = 2 rats per group were removed due to poor nigral targeting). The dose of SMM-189 was based on a pharmacokinetic study in mice determining therapeutic brain-blood ratios as described below. […]
An additional cohort of rats (termed “high cohort”) was evaluated to determine effects of SMM-189 on immune cell populations in the brain, resident or infiltrating, and the periphery as measured by flow cytometry (Fig. 1). […] Brains were collected at endpoints, and brain immune cells isolated and evaluated using multicolor flow cytometry. […]

O=C(c1ccccc1)c1cc(O)c(-c2cc(Cl)cc(Cl)c2)c(O)c1 [SMM-189]
Rats weight, difference between treatment groups: no significant differences
